Patent US4939156A (priority 1987, dated 1990)
In brackets after ≈: the same amount, converted by molar mass.

How the values were obtained:
[1] = system: Herpes simplex virus (HSV) Type 2 196 strain; experiment: Antiviral activity, Virus No. 5 infested Vero cell; assay type: cell-based; details: for IC50: 48 h, HSV Type 2, Vero cell, read-out: Inhibitory Concentration (IC50) which inhibited by 50% the denaturation of Virus No. 5 infested Vello cell; for Quotient of minimum denaturation concentration divided by IC50, Virus No. 5: figures in brackets, Vero cell, HSV Type 2
in vitro [2] = details: monkey, vero cells
[3] = system: human premyelocytic leukemia cells (HL-60); experiment: 50% inhibition of propagation of undifferentiated human premyelocytic leukemia HL-60 cells; assay type: cell-based; details: 144 h, 6 days incubation, read-out: Activity of test compound to inhibit by 50% the undifferentiated propagation of HL-60 cells (IC50)
Protocol: (§1) The human premyelocytic elukemia cells (HL-60 cell) are characterized by the ability to respond to pharmacological inducers of differentiation and can produce the normal granulocytes when they have been differentiated, as described in the "Blood" Vol. 54, No. 3, 713-733 (1979).
(§2) Thus, firstly the cell differentiation-inducing activity of the compound was assayed by the following procedure described in said "Blood". Namely, HL-60 cells were incubated by passing successively through RPMI 1640 media supplemented with 10% FCS (fetal calf serum), followed by adding the test compound at varying concentrations to aliquots of the culture of the HL-60 cells at the logarithmic phase of growth. The HL-60 cells thus incubated were further incubated in the presence of the test compound for 6 days and subsequently fixed to slide glasses. The fixed HL-60 cells were stained with May-Gruenwald-Giemsa's reagent and the morphology of the nuclei in the stained cells was examined to judge which of the cells has been differentiated into the normal granulocytes. Then, the number of the HL-60 cells which had propagated were counted.
As said "IC50 " concentration of the test compound was assumed such concentration of the test compound at which the counted number of the HL-60 cells having propagated was reduced by 50%, as compared to that counted in the control tests where the test compound was not used.

[4] = system: human premyelocytic leukemia cells (HL-60); experiment: NBT-reducing ability (differentiation) of HL-60 cells after treatment with test compound; assay type: cell-based; details: 0.1% NBT, 37° C., 20 minutes
Protocol: as §1, §2
Secondly, the another aliquot of the culture of the HL-60 cells which were incubated in the above procedure in the presence of the test compound at its evaluated "IC50 " concentration was centrifuged to collect the cells, which were then diluted with a volume of RPMI 1640 medium supplemented with 10% FCS, to provide a given concentration of the cells. Subsequently, the cells which were diluted with said medium were added and mixed with 0.1% of NBT and then incubated at 37° C. for 20 minutes. The number of the cells which stained black color owing to the involved reduction of NBT and which could be judged to have the ability to reduce NBT was counted.

[5] = system: Influenza virus A/PR/8/34 strain; experiment: Antiviral activity, Virus No. 1 infested MDCK cell; assay type: cell-based; details: for IC50: PR/8, MDCK, 48 h, read-out: Inhibitory Concentration (IC50) which inhibited by 50% the denaturation of Virus No. 1 infested MDCK cell; for Quotient of minimum denaturation concentration divided by IC50, Virus No. 1: figures in brackets, MDCK cell, Influenza virus, 2880 min
[6] = system: Newcastle disease virus (NDV) Miyadera strain; experiment: microbe, parasite or virus in culture; assay type: cell-based; details: for IC50: avian paramyxovirus 1, 48 h, read-out: Inhibitory Concentration (IC50) which inhibited by 50% the denaturation of Virus No. 2 infested HeLa-Y cell; for Quotient of minimum denaturation concentration divided by IC50, Virus No. 2: figures in brackets, HeLa-Y cell, NDV, 2880 min
[7] = system: vesicular stomatitis virus (VSV) New Jersey strain; experiment: microbe, parasite or virus in culture; assay type: cell-based; details: for IC50: Vesicular stomatitis virus, L929, 48 h, read-out: Inhibitory Concentration (IC50) which inhibited by 50% the denaturation of Virus No. 3 infested L-929 cell; for Quotient of minimum denaturation concentration divided by IC50, Virus No. 3: figures in brackets, L-929 cell, VSV, 2880 min
[8] = system: Vaccinia virus Lister strain; experiment: organism not typed; assay type: cell-based; details: for IC50: 48 h, read-out: Inhibitory Concentration (IC50) which inhibited by 50% the denaturation of Virus No. 4 infested HeLa-Y cell; for Quotient of minimum denaturation concentration divided by IC50, Virus No. 4: figures in brackets, HeLa-Y cell, Vaccinia virus, 2880 min
in vitro [9] = details: human, hela-y cells
in vitro [10] = details: mouse, l-929 cells
in vitro [11] = details: dog, mdck
mice = experiment: Acute toxicity in mice given i.p.; assay type: in vivo; details: twice a day, 4 days, counted at 5th day
Protocol: For estimation of toxicity of the new compounds of this invention for mammalian animals, acute toxicity of the TI-27 Substance of Example 1 as a representative example was tested by intraperitoneal administration of a suspension of 25 mg/ml of TI-27 substance in a 0.5% aqueous solution of carboxymethyl cellulose (CMC) to mice (five in each group). The TI-27 substance was given to mice twice a day at a unit dosage of 5 mg, 1.25 mg, 0.313 mg, 0.078 mg or 0.02 mg per mouse for consecutive 4 days, totally 8 times. The number of the surviving mice which tolerated the administration of TI-27 Substance was counted at the 5th day of the tests.

| Structure (SMILES) | IC50 [1] [µg/mL] | Quotient of minimum denaturation concentration divided by IC50, Virus No. 5 [1] | MCC at 48 h (in vitro [2]) [µg/mL] | IC50 [3] [µg/mL] | Percent of the number of the cells showing the NBT-reducing ability after treatment with test compound at IC50 concentration [4] [%] | IC50 [5] [µg/mL] | Quotient of minimum denaturation concentration divided by IC50, Virus No. 1 [5] | IC50 [6] [µg/mL] | Quotient of minimum denaturation concentration divided by IC50, Virus No. 2 [6] | IC50 [7] [µg/mL] | Quotient of minimum denaturation concentration divided by IC50, Virus No. 3 [7] | IC50 [8] [µg/mL] | Quotient of minimum denaturation concentration divided by IC50, Virus No. 4 [8] | MCC at 48 h (in vitro [9]) [µg/mL] | MCC at 48 h (in vitro [10]) [µg/mL] | MCC at 48 h (in vitro [11]) [µg/mL] | also measured |
| --- | --- | --- | --- | --- | --- | --- | --- | --- | --- | --- | --- | --- | --- | --- | --- | --- | --- |
| Nc1nc2c(ncn2COCCO)c(=O)[nH]1 [Acyclovir, reference compound] | 1.17 (≈ 5.2 µM) | > 855 | > 1000 |  |  |  |  |  |  |  |  |  |  |  |  |  |  |
| CCN1C(=O)[C@@H]2[C@H](N(CC)C1=O)C(C)(C)C2(C)C (relative stereo) [TI-16 Substance, 2,4-diethyl-7,7,8,8-tetramethyl-cis-2,4-diaza-bicyclo{4.2.0}octane-3,5-dione] | 375 (≈ 1490 µM) | 1.33 | 500 | 17 (≈ 67.4 µM) | 69 | 375 (≈ 1490 µM) | 2.67 | > 250 | < 1.0 | > 500 | < 1.0 | > 250 | < 1.0 | 250 | 500 | 1000 |  |
| CC1(C)C2N(Cc3ccccc3)C(=O)N(Cc3ccccc3)C(=O)C2(F)C1(C)C (stereo not shown) [TI-66 Substance, 2,4-dibenzyl-6-fluoro-7,7,8,8-tetramethyl-2,4-diaza-bicyclo{4.2.0}octane-3,5-dione] | > 100 | < 0.63 | 62.5 | 7 (≈ 17.7 µM) | 65 | > 200 | < 1.25 | > 25 | < 0.62 | 18.8 (≈ 47.7 µM) | 0.83 | > 25 | < 0.62 | 15.6 | 15.6 | 250 |  |
| CN1C(=O)[C@@H]2[C@H](N(C)C1=O)C(C)(C)C2(C)C (relative stereo) [TI-27 Substance, 2,4,7,7,8,8-hexamethyl-cis-2,4-diaza-bicyclo{4.2.0}octane-3,5-dione] | > 500 | < 1.0 | 500 | 35 (≈ 156 µM) | 51 | 188 (≈ 838 µM) | 5.32 | > 250 | < 1.0 | > 500 | < 1.0 | > 250 | < 1.0 | 250 | 250 | 1000 | Number of surviving mice/number of mice tested (mice; 0.02 mg/mouse i.p.): 5/5; Number of surviving mice/number of mice tested (mice; 0.078 mg/mouse i.p.): 5/5; Number of surviving mice/number of mice tested (mice; 0.313 mg/mouse i.p.): 5/5; Number of surviving mice/number of mice tested (mice; 1.25 mg/mouse i.p.): 1/5; Number of surviving mice/number of mice tested (mice; 5 mg/mouse i.p.): 0/5 |
| NC12CC3CC(CC(C3)C1)C2 [Amantadine, reference compound] |  |  |  |  |  | 50 (≈ 331 µM) | 5.0 |  |  |  |  |  |  |  |  | 250 |  |
| CC1(C)O[C@@H]2[C@H](O1)[C@@H](CO)O[C@H]2N1C(=O)NC(=O)C2C1C(C)(C)C2(C)C (stereo partly drawn) [TI-28 Substance, 7,7,8,8-tetramethyl-2-(2',3'-isopropylidene-ribofuranosyl)-cis-2,4-diaza-bicyclo{4.2.0}octane-3,5-dione] | > 1000 | < 1.0 | > 1000 | 62.5 (≈ 170 µM) | 37 | 750 (≈ 2040 µM) | 1.33 | > 1000 |  | 1000 (≈ 2710 µM) | 1.0 | > 1000 |  | > 1000 | > 1000 | 1000 |  |
| CCN1C(=O)NC(=O)C2(F)C1C(C)(C)C2(C)C (stereo not shown) [TI-62 Substance, 2-ethyl-6-fluoro-7,7,8,8-tetramethyl-2,4-diaza-bicyclo{4.3.0}octane-3,5-dione] | > 250 | < 2.00 | 500 | 9 (≈ 37.1 µM) | 34 | > 500 | < 2.00 | > 250 | < 1.00 | > 125 | < 2.00 | > 250 | < 1.00 | 250 | 250 | 1000 |  |
| CCN1C(=O)N(CC)C2C(C)(C)C(C)(C)C2(F)C1=O (stereo not shown) [TI-65 Substance, 2,4-diethyl-6-fluoro-7,7,8,8-tetramethyl-2,4-diaza-bicyclo{4.2.0}octane-3,5-dione] | 188 (≈ 695 µM) | 2.66 | 500 | 36 (≈ 133 µM) | 20 | 375 (≈ 1390 µM) | 2.67 | > 250 | < 1.00 | > 125 | < 2.00 | > 250 | < 1.00 | 250 | 250 | 1000 |  |
| CN1C(=O)NC2C(C)(C)C(C)(C)C2(F)C1=O (stereo not shown) [TI-61 Substance, 6-fluoro-4,7,7,8,8-pentamethyl-2,4-diaza-bicyclo{4.2.0}octane-3,5-dione] | 93.8 (≈ 411 µM) | 1.33 | 125 | 39 (≈ 171 µM) | 18 | 188 (≈ 824 µM) | 1.33 | > 125 | < 1.00 | 93.8 (≈ 411 µM) | 1.33 | > 125 | < 1.00 | 125 | 125 | 250 |  |
